# Assay results from patent publication US10221163B2 (priority 2015, dated 2019).
# Read-outs that look alike come from different tables or passages of the source.
# Tests used:
# [1] = test system: Pseudomonas aeruginosa efflux− (MB9799), IMP-1; type: cell-based; settings: C, D serine β-lactamase inhibitor closely related to relebactam; for P. aeruginosa expressing IMP-1, efflux − (MB9799) MITC95: concentration restoring susceptibility to imipenem at 2 μg/mL in the presence of a class A; for Concentration of metallo-β-lactamase inhibitor which restores susceptibility of efflux − (MB9799) strain to imipenem: imipenem at 2 μg/mL, in the presence of a class A
# Summary of the method: (§1)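 Steps: add fixed imipenem and/or ceftazidime (usually CLSI breakpoint) and fixed AmpC-directed class A/C inhibitor to microbroth MIC wells; titrate MBL inhibitor; record concentration regaining susceptibility for each PAO1-derived strain; divide efflux+ by efflux− value.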
# [2] = test system: Pseudomonas aeruginosa efflux+ (MB9798), IMP-1; type: cell-based; set-up: Concentration of metallo-β-lactamase inhibitor which restores susceptibility of efflux + (MB9798) strain to imipenem: unit not given here; settings: C, D serine β-lactamase inhibitor closely related to relebactam; for P. aeruginosa expressing IMP-1, efflux + (MB9798) MITC95: concentration restoring susceptibility to imipenem at 2 μg/mL in the presence of a class A; for Concentration of metallo-β-lactamase inhibitor which restores susceptibility of efflux + (MB9798) strain to imipenem: imipenem at 2 μg/mL, in the presence of a class A
# Summary of the method: as §1
# [3] = test system: Klebsiella pneumoniae expressing VIM-1 (IHMA599644); type: cell-based; settings: for Klebsiella pneumoniae MITC95: VIM-1 strain IHMA599644, with imipenem 1 μg/ml, 95% inhibition of growth; for Klebsiella pneumoniae expressing VIM-1 (IHMA599644) MITC95: with imipenem 1 μg/ml, 95% inhibition of bacterial growth
# Summary of the method: (§2)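 Growth by absorbance after 22–24 h at 35°C defined the read-out, with imipenem fixed at 1 μg/ml alongside compound. Inocula came from overnight blood-agar colonies at 35°C, resuspended in saline and diluted 1:100 in 1.1×CAMHB.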
# [4] = test system: Escherichia coli expressing NDM-1 (CLB30005, CLB30016); type: cell-based; settings: with imipenem 1 μg/ml; for Escherichia coli MITC95: NDM-1 strain, 95% inhibition of growth; for Escherichia coli expressing NDM-1 (CLB30016) MITC95: 95% inhibition of bacterial growth
# Summary of the method: as §2
# [5] = test system: Serratia marcescens expressing IMP-1 (CL5741); type: cell-based; settings: for Serratia marcescens MITC95: IMP-1 strain CL5741, with imipenem 1 μg/ml, 95% inhibition of growth; for Serratia marcescens expressing IMP-1 (CL5741) MITC95: with imipenem 1 μg/ml, 95% inhibition of bacterial growth
# Summary of the method: as §2
# [6] = biological target: NDM-1 (Klebsiella pneumoniae, UniProt C7C422); assay: biochemical; type: biochemical; settings: fluorescence assay, CCF2-FA substrate, 1 pM enzyme, 2 hours at 25° C.; read-out: NDM-1 IC50
# Chain of NDM-1 (C7C422 whole entry, looked up, species assumed): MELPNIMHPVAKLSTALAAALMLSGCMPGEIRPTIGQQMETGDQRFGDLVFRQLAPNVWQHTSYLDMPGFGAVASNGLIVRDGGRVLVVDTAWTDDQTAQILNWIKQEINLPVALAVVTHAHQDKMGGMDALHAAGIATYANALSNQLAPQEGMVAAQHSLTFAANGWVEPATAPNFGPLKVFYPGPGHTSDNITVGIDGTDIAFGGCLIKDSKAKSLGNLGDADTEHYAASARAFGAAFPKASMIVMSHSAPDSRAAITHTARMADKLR
# Summary of the method: (§3)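 Class B activity is measured in the presence of compound by fluorescence with CCF2-FA after a 2-hour incubation at 25° C. IC50 is taken from a 4-parameter fit of semi-logarithmic dose-response data.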
# [7] = biological target: IMP-1 (Serratia marcescens, UniProt P52699); assay: biochemical; type: biochemical; settings: fluorescence assay, CCF2-FA substrate, 2 pM enzyme, 2 hours at 25° C.; read-out: IMP-1 IC50
# Chain of IMP-1 (P52699 whole entry, looked up, species assumed): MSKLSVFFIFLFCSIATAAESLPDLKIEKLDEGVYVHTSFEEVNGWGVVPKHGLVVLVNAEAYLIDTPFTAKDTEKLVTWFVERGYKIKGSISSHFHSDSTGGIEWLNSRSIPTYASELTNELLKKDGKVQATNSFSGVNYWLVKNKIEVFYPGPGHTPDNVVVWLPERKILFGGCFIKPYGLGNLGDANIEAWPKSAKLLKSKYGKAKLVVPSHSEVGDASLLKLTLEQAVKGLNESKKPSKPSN
# Summary of the method: as §3
# [8] = biological target: VIM-1 (Pseudomonas aeruginosa (strain ATCC 15692 / DSM 22644 / CIP 104116 / JCM 14847 / LMG 12228 / 1C / PRS 101 / PAO1), UniProt A0A0F7KYQ8); assay: biochemical; settings: CCF2-FA substrate, 30 pM enzyme, 2 hours at 25° C.
# Experimental: Enzyme Activity: Determination of IC50
# The Class B enzyme activities were measured in the presence of the test inhibitor in a fluorescence assay against a commercially available substrate consisting of a cephalosporin core linking 7-hydroxycoumarin to fluorescein (CCF2-FA). […] In a 384-well microplate, the test inhibitor was incubated with the metallo-β-lactamase enzyme and the substrate for 2 hours at 25° C. […] The IC50 value was determined from semi-logarithmic plots of enzyme inhibition versus inhibitor concentration, with a curve generated using a 4-parameter fit.
# [9] = test system: Pseudomonas aeruginosa MB9798 vs MB9799
# From the text: The strain background was Pseudomonas aeruginosa PAO1.
# The strain set was then used as a pair to determine the effect of metallo-β-lactamase inhibitors of Formula I on the MIC of imipenem and/or ceftazidime. A fixed concentration of antibiotic was included in standard microbroth MIC tests, usually at the CLSI (Clinical and Laboratory Standards Institute) breakpoint concentration. A fixed amount of a class A/C beta-lactamase inhibitor was also included to inhibit the resident Pseudomonas AmpC enzyme. A serial titration of the metallo-β-lactamase inhibitor was included and the concentration of metallo-β-lactamase inhibitor which restores susceptibility of the strain to the included antibiotic was recorded. That concentration of metallo-β-lactamase inhibitor was then compared between the two strains to determine the fold difference between the efflux+ (MB9798) and efflux− (MB9799) strains. This was taken as an indication of the extent to which the MBLi is subject to efflux.
# [10] = ratio MITC95 PA_9798/MITC95 PA_9799
# [11] = fluorescence assay, read-out: VIM-1 IC50
# [12] = fold difference between efflux+ (MB9798) and efflux− (MB9799) strains, imipenem at 2 μg/mL
Compound,"P. aeruginosa expressing IMP-1, efflux − (MB9799) MITC95 [1] [µM]","P. aeruginosa expressing IMP-1, efflux + (MB9798) MITC95 [2] [µM]",Klebsiella pneumoniae MITC95 [3] [µM],Escherichia coli MITC95 [4] [µM],Serratia marcescens MITC95 [5] [µM],IC50 [6] [pM],IC50 [7] [pM],"IC50 ([8]; VIM-1 IC50, fluorescence assay) [pM]","Efflux ratio [9, 10]",Klebsiella pneumoniae expressing VIM-1 (IHMA599644) MITC95 [3] [µM],Escherichia coli expressing NDM-1 (CLB30016) MITC95 [4] [µM],Serratia marcescens expressing IMP-1 (CL5741) MITC95 [5] [µM],"IC50 [8, 11] [pM]",Concentration of metallo-β-lactamase inhibitor which restores susceptibility of efflux − (MB9799) strain to imipenem [1],Concentration of metallo-β-lactamase inhibitor which restores susceptibility of efflux + (MB9798) strain to imipenem [2],"Efflux ratio [9, 12]"
"Nc1nc2c(-c3ccc(S(=O)(=O)NC4CNC[C@H]4N)c(S(N)(=O)=O)c3-c3nn[nH]n3)cccc2[nH]1 (stereo in doubt) [Example 322, 4-(2-Amino-1H-benzo[d]imidazol-4-yl)-N1-((3S,4R)-4-aminopyrrolidin-3-yl)-3-(2H-tetrazol-5-yl)benzene-1,2-disulfonamide]",0.7813,0.651,1.302,0.5208,1.042,53.6,738,182,0.83,–,–,–,–,–,–,–
"NCCNS(=O)(=O)c1ccc(-c2cccc3oc(N)nc23)c(-c2nn[nH]n2)c1S(N)(=O)=O [Example 11, 4-(2-aminobenzo[d]oxazol-4-yl)-N^1-(2-aminoethyl)-3-(2H-tetrazol-5-yl)benzene-1,2-disulfonamide]",0.3906,0.3906,–,–,–,–,–,–,1.00,1.563,0.7813,0.7813,50.2,–,–,–
"Nc1nc2c(-c3ccc(S(=O)(=O)N[C@@H](N)c4ccccn4)c(S(N)(=O)=O)c3-c3nnn[nH]3)cccc2s1.O=C(O)C(F)(F)F [Example 99, (R)-(4-(2-aminobenzo[d]thiazol-4-yl)-2-sulfamoyl-3-(1H-tetrazol-5-yl)phenylsulfonamido)(pyridin-2-yl)methanaminium 2,2,2-trifluoroacetate]",3.125,25,–,–,–,–,–,–,8.00,25,12.5,6.25,499,–,–,–
Nc1nc2c(-c3ccc(S(=O)(=O)NC4C[C@@H]5CN[C@H]4C5)c(S(N)(=O)=O)c3-c3nnn[nH]3)cccc2s1.O=CO (stereo partly drawn) [Example 119],1.563,0.7813,–,–,–,–,–,–,0.50,3.125,1.563,1.563,–,–,–,–
"C[C@H](CN)NS(=O)(=O)c1ccc(-c2cccnc2N)c(-c2nn[nH]n2)c1S(N)(=O)=O [Example 212, (R)-N1-(1-amino-propan-2-yl)-4-(2-aminopyridin-3-yl)-3-(2H-tetrazol-5-yl)benzene-1,2-disulfonamide]",1.563,1.563,–,–,–,–,–,–,1.00,1.563,0.3906,0.7813,154,–,–,–
"C[N+]1(C)CC[C@@H](NS(=O)(=O)c2ccc(-c3cccc4[nH]c(N)nc34)c(-c3nn[nH]n3)c2S(N)(=O)=O)C1.[Cl-] [Example 233, (R)-3-((4-(2-amino-1H-benzo[d]imidazol-4-yl)-2-sulfamoyl-3-(2H-tetrazol-5-yl)phenyl)sulfonamido)-1,1-dimethylpyrrolidin-1-ium chloride]",1.563,1.563,–,–,–,22.5,305,–,1.00,1.563,0.3906,0.3906,–,–,–,–
"C[N+]1(CCN)CC[C@H](NS(=O)(=O)c2ccc(-c3cccc4[nH]c(N)nc34)c(-c3nn[nH]n3)c2S(N)(=O)=O)C1.O=C([O-])O (stereo partly drawn) [Example 249, (3S)-3-{[4-(2-amino-1H-1,3-benzodiazol-4-yl)-2-sulfamoyl-3-(2H-1,2,3,4-tetrazol-5-yl)benzene]sulfonamido}-1-(2-aminoethyl)-1-methylpyrrolidin-1-ium methaneperoxoate]",0.7813,0.7813,1.563,0.3906,1.563,15.3,342,–,1.00,–,–,–,–,–,–,–
NCc1sc(N)nc1-c1cccc(-c2ccc(S(=O)(=O)N[C@@H]3CCNC3)c(S(N)(=O)=O)c2-c2nnn[nH]2)c1 [Example 432],–,–,1.563,0.7813,0.7813,–,–,387,–,–,–,–,–,0.7813,0.7813,1.00
"C[C@H](N)Cc1nc2c(-c3ccc(S(=O)(=O)N[C@@H]4CCNC4)c(S(N)(=O)=O)c3-c3nn[nH]n3)cccc2[nH]1 [Example 441, 4-(2-((S)-2-Aminopropyl)-1H-benzo[d]imidazol-4-yl)-N1-((R)-pyrrolidin-3-yl)-3-(2H-tetrazol-5-yl)benzene-1,2-disulfonamide]",–,–,1.563,1.563,1.563,81.1,1230,–,–,–,–,–,150,0.7813,1.563,–
NCCNC(=O)c1cc(Cl)cc(-c2ccc(S(=O)(=O)N[C@@H]3CCNC3)c(S(N)(=O)=O)c2-c2nn[nH]n2)c1N [Example 450],–,–,1.563,1.563,1.563,–,–,–,–,–,–,–,276,0.7813,1.563,2.00
"CNc1nc2c(-c3ccc(S(=O)(=O)NCCN)c(S(N)(=O)=O)c3-c3nn[nH]n3)cccc2[nH]1 [Example 467, N1-(2-aminoethyl)-4-(2-(methylamino)-1H-benzo[d]imidazol-4-yl)-3-(2H-tetrazol-5-yl)benzene-1,2-disulfonamide]",–,–,1.563,0.7813,0.7813,–,–,–,–,–,–,–,120,0.7813,0.3906,0.50
